From US20250368647A1, “NITROGEN CONTAINING CONDENSED 2,3-DIHYDROQUINAZOLINONE COMPOUNDS AS NAV1.8 INHIBITORS” (GLAXOSMITHKLINE INTELLECTUAL PROPERTY DEVELOPMENT LIMITED, priority 2022, published 2025) come the findings set out here.

The test concerns the target human Nav1.8 (Homo sapiens (Human), UniProt Q9Y5Y9). The test is described as follows: QPatch 48 HTX voltage-clamp electrophysiology, half inactivation state (V1/2) protocol, HEK293-Nav1.8 cells. It counts as cell-based. The following applies: HEK293 cells expressing human Nav1.8, human Navβ1 and human TREK1, P2 current; for IC50: read-out: Nav1.8, pIC50 (converted). As to the method: Human embryonic kidney 293 cells (HEK293) expressing human Nav1.8, human Navβ1 and human TREK1 (HEK293-Nav1.8) were grown in T150 cell culture flasks at 37° C., 5% CO2 incubator. HEK293-Nav1.8 were passaged every 2-3 days when confluency reached 80-90% in T150 cell culture flasks.
Pharmacological assessment of compounds of the invention was performed using the QPatch 48 HTX electrophysiological platform. HEK293-Nav1.8 cells were prepared on the day of use by removing culture media, washing in DPBS, adding Accutase (2 mL to cover the surface, aspirate 1 mL then 1-2 minutes at 37° C.) followed by addition of CHO-SFM II to stop the enzyme digestion and in order to obtain a suspension of 3×10^6 cell/mL.
Compounds of the invention were prepared in an extracellular solution of the following composition: NaCl (145 mM), KCl (4 mM), CaCl2) (2 mM), MgCl (2 mM), HEPES (1 mM), Glucose (10 mM), pH 7.4 with NaOH Osmolality 300 mOsM/L. An intracellular solution of the following composition was used: CsF (115 mM), CsCl (20 mM), NaCl (5 mM), EGTA (10 mM), HEPES (10 mM), Sucrose (20 mM), pH 7.2 with CsOH Osmolality 310 mOsm/L.
Utilizing the voltage-clamp mode in the QPatch 48 HTX system a half inactivation state voltage protocol (V1/2) was used to determine pharmacological activity of compounds of the invention at Nav1.8 ion channels. A V1/2 protocol was utilized with the following voltage steps: a holding voltage of −100 mV was established followed by a 20 ms voltage step to 0 mV (P1), followed by an inactivating voltage step at −46 mV for 8 seconds, followed by a step to −100 mV for 20 ms, before a 20 ms step to 0 mV (P2), then returned to the holding voltage of −100 mV. This voltage protocol was repeated at a frequency of every 15 seconds, the current magnitude was quantified at the P2 step throughout the recording. Inhibition of the measured current amplitude with compounds of the invention was analyzed by fitting a 4-6 points dose-response curve allowing determination of the fifty percent inhibition concentration (IC50). P2 currents were normalized according to measurements made at baseline (Baseline, vehicle only), after compound (Input, at each test concentration), and after positive reference compound (FullResponse, to achieve complete block), fit to the following equation: […]
To assess current run-down over the course of the experiment vehicle-only wells were utilized and the normalized current with vehicle-only (n.IVEH) was determined. To correct the compound response for run-down, the currents were corrected according to the following formula: […]
Compound inhibition was fitted to the following Hill Equation to estimate the half maximal inhibition concentration (IC50)
[formula] • where Y is the normalized run-down corrected inhibition relative to the vehicle control (equivalent to n.IRD_Correct), C the test compound concentration, IC50 the concentration of test compound to inhibit the sodium current by 50%, and h the Hill coefficient.
(The patch-clamp technique gives a direct electrical read-out from membranes.)

Structures can show the parent of a compound that is named as a salt.

human Nav1.8, sequence (Q9Y5Y9 whole entry): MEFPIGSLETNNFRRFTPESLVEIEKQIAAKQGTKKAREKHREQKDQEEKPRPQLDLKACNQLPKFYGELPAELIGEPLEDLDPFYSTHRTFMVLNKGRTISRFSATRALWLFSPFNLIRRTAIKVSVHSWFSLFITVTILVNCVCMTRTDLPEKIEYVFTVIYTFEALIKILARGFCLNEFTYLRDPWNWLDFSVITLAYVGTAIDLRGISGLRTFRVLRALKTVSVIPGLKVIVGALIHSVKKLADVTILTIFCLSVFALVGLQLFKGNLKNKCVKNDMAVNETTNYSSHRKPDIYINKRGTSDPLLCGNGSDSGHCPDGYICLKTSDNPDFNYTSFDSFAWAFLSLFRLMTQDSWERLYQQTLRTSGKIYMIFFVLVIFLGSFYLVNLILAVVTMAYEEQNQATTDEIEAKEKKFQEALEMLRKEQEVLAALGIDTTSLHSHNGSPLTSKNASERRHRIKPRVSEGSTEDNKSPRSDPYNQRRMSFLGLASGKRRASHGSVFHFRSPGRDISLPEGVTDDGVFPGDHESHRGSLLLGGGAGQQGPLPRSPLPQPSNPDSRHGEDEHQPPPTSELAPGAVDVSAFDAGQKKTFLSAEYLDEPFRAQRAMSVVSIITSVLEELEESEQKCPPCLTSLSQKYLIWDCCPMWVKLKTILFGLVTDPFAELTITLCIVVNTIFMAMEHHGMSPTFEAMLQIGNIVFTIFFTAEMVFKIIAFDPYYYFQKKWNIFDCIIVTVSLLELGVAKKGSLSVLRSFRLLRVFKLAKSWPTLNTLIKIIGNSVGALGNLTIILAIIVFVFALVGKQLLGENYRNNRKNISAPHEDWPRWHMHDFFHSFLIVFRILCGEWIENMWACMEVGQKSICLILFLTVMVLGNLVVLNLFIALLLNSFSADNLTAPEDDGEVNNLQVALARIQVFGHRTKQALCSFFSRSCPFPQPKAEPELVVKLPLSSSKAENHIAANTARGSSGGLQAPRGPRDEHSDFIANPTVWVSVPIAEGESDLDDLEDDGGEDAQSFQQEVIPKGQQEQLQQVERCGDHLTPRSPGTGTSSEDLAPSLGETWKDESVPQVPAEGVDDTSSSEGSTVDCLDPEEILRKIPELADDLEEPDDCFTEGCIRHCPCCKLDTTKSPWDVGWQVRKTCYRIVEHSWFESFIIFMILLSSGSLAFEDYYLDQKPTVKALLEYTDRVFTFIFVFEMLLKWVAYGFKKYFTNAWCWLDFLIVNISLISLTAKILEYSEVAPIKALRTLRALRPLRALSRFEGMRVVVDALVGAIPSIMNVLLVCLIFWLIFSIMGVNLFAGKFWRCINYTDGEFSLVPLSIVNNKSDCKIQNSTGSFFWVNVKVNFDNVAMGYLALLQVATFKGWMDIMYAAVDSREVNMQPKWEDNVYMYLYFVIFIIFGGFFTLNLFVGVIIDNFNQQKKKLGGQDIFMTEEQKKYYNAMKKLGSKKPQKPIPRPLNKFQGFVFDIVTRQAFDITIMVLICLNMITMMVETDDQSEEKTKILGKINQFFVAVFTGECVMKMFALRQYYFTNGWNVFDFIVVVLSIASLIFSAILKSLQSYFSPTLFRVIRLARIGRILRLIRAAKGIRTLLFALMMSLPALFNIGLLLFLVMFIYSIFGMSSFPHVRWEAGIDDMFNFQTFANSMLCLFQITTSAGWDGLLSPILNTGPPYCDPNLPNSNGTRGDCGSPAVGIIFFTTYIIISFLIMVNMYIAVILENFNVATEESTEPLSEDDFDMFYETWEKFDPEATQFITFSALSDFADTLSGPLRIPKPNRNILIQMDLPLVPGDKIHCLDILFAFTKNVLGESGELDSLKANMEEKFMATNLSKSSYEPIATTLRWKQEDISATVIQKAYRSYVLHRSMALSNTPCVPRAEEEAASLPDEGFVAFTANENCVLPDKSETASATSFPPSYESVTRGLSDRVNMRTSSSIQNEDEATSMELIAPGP
human Nav1.8, sequence (Q07699 19-218 partner): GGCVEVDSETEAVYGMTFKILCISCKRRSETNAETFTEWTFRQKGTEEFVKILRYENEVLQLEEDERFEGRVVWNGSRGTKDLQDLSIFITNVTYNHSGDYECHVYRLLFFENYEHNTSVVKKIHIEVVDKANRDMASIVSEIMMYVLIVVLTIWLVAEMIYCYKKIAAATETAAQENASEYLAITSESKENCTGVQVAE

On to `CN1CCCCc2cc(F)ccc2N2CN(C(=O)c3ccc(C(F)(F)F)cc32)c2cc(I)c(=O)[nH]c21` [Example 14, 3^4-Fluoro-1^3-iodo-8-methyl-2^7-(trifluoromethyl)-1^1, 1^2,2^1,2^2,2^3,2^4-hexahydro-8-aza-2(3,1)-quinazolina-1(5,6)-pyridina-3(1,2)-benzenacyclooctaphan-1^2,2^4-dione], for which the “Nav1.8, pIC50” value came out at 6.9.
For `O=C1c2cc(C(F)(F)F)ccc2N2CN1c1ccc(=O)[nH]c1CCNCc1cc(F)ccc12` [Example 41, 8-Fluoro-2-(trifluoromethyl)-10,11,12,13-tetrahydro-19H-5,18-methanodibenzo[c,f]pyrido[3,2-f][1,5,9]triazacyclotridecine-15,19(14H)-dione], the “Nav1.8, pIC50” value is 7.3.
The same measure, in the same setting: in the case of `O=C1c2cc(C(F)(F)F)cnc2N2CN1c1ccc(=O)[nH]c1CC/C=C\Cc1cc(F)ccc12` [Example 24, 3^4-Fluoro-2^6-(trifluoromethyl)-1^1,1^2,2^1,2^2,2^3,2^4-hexahydro-2(3,1)-pyrido[2,3-d]pyrimidina-1(5,6)-pyridina-3(1,2)-benzenacyclooctaphan-5-ene-1^2,2^4-dione] it was 7.7; in that of `Cl.O=C1c2cc(F)c(F)cc2N2CN1c1ccc(=O)[nH]c1CCNCc1cc(F)ccc12` [Example 53, 2,3,8-Trifluoro-10,11,12,13-tetrahydro-19H-5,18-methanodibenzo[c,f]pyrido[3,2-j][1,5,9]triazacyclotridecine-15,19(14H)-dione hydrochloride], 6.7.
Turning to `N#Cc1c(F)ccc2c1CNCCc1[nH]c(=O)ccc1N1CN2c2cc(F)c(F)cc2C1=O` [Example 83, 2,3,8-Trifluoro-15,19-dioxo-10,11,12,13,14,15-hexahydro-19H-5,18-methano-dibenzo[c,f]pyrido[3,2-j][1,5,9]triazacyclotridecine-9-carbonitrile], the “Nav1.8, pIC50” value is recorded as 6.8.
Same read-out and setting: the same measure for `O=C1c2cc(C(F)(F)F)ccc2N2CN1c1ccc(=O)[nH]c1CCCCCCc1cc(F)ccc12` [Example 10, 3^4-Fluoro-2^6-(trifluoromethyl)-1^1,1^2,2^1,2^2,2^3,2^4-hexahydro-2(3,1)-quinazolina-1(5,6)-pyridina-3(1,2)-benzenacyclononaphane-1^2,2^4-dione]: 6.5.
For the compound `C[C@H]1NCCc2[nH]c(=O)ccc2N2CN(c3ccc(C(F)(F)F)cc3C2=O)c2ccc(F)cc21` [Example 115, (10R)-8-fluoro-10-methyl-2-(trifluoromethyl)-10,11,12,13-tetrahydro-19H-5,18-methanodibenzo[c,f]pyrido[3,2-j][1,5,9]triazacyclotridecine-15,19(14H)-dione], the IC50 was 100 nM.
On to `O=C1c2cc(C(F)(F)F)ncc2N2CN1c1ccc(=O)[nH]c1NCCCc1c2ccc(F)c1F` [Example 38, 8,9-Diluoro-2-(trifluoromethyl)-10,11,12,13-tetrahydro-19H-5,18-methanodibenzo[i]dipyrido[2,3,-b:4′,3′-f][1,4,8]triazacyclotridecine-15,19(14H)-dione], for which the “Nav1.8, pIC50” value came out at 6.8.
In the case of `Cl.O=C1c2cc(F)c(Cl)cc2N2CN1c1ccc(=O)[nH]c1CCNCc1c2ccc(F)c1F` [Example 49, 3-Chloro-2,8,9-trifluoro-10,11,12,13-tetrahydro-19H-5,18-methanodibenzo[c,f]pyrido[3,2-j][1,5,9]triazacyclotridecine-15,19(14H)-dione hydrochloride], the “Nav1.8, pIC50” value was determined as 8.2.
Still for that read-out and setting: the same measure for `O=C1c2cc(C(F)(F)F)ccc2N2CN1c1ccc(=O)[nH]c1CNCCc1cc(F)ccc12` [Example 103, 8-Fluoro-2-(trifluoromethyl)-10,11,12,13-tetrahydro-19H-5,18-methanodibenzo[b,l]pyrido[3,2-f][1,5,9]triazacyclotridecine-15,19(14H)-dione]: 6.4; for `CC1NCCc2[nH]c(=O)ccc2N2CN(c3cc(C(F)(F)F)c(F)cc3C2=O)c2ccc(F)cc21` (racemic) [Example 117, 2,8-Difluoro-10-methyl-3-(trifluoromethyl)-10,11,12,13-tetrahydro-19H-5,18-methanodibenzo-[c,f]pyrido[3,2-j][1,5,9]triazacyclotridecine-15,19(14H)-dione hydrochloride]: 7.3.
Same read-out and setting: the same measure for `Cl.O=C1c2cc(F)c(Br)cc2N2CN1c1ccc(=O)[nH]c1CCNCc1c2ccc(F)c1F` [Example 62, 3-Bromo-2,8,9-trifluoro-10,11,12,13-tetrahydro-19H-5,18-methanodibenzo[c,f]pyrido[3,2-j][1,5,9]triazacyclotridecine-15,19(14H)-dione hydrochloride]: 8.2; for `O=C1c2cc(C(F)(F)F)ccc2N2CN1c1cc[n+]([O-])cc1CCCCCc1cc(F)ccc12` [Example 26, 3^4-Fluoro-2^4-oxo-2^6-(trifluoromethyl)-2^1,2^2,2^3,2^4-tetrahydro-2(3,1)-quinazolina-1(4,3)-pyridin-1-iuma-3(1,2)-benzenacyclooctaphan-1-oxide]: 8.3.
Turning to `C[C@@H]1NCCc2[nH]c(=O)ccc2N2CN(c3cc(C(F)(F)F)c(F)cc3C2=O)c2ccc(F)cc21` [Example 119, (10S)-2,8-Difluoro-10-methyl-3-(trifluoromethyl)-10,11,12,13-tetrahydro-19H-5,18-methanodibenzo[c,f]pyrido[3,2-j][1,5,9]triazacyclotridecine-11(10H)-dione], the IC50 is 631 nM.
The same measure, in the same setting: the same measure for `CC1Cc2[nH]c(=O)ccc2N2CN(c3ccc(F)cc3CN1)c1cc(C(F)(F)F)c(F)cc1C2=O` (single isomer, unassigned; isomer 2) [Example 125, 2,8-difluoro-12-methyl-3-(trifluoromethyl)-10,11,12,13-tetrahydro-19H-5,18-methanodibenzo[c,f]pyrido[3,2-j][1,5,9]triazacyclotridecine-15,19(14H)-dione, Isomer 2]: 631 nM.
In the case of `O=C1c2cc(C(F)(F)F)ccc2N2CN1c1ccc(=O)[nH]c1CCCCc1cc(F)ccc12` [Example 4, 8-Fluoro-2-(trifluoromethyl)-10,11,12,13-tetrahydro-19H-5,18-methanodibenzo[b,l]pyridino[3,2-f][1,5]diazacyclotridecine-15,19(14H)-dione], the “Nav1.8, pIC50” value stood at 6.8.
On the same count and under the same terms, in the case of `O=C1c2cc(F)c(C(F)(F)F)cc2N2CN1c1ccc(=O)[nH]c1CCNCc1cc(F)ccc12` [Example 44, 2,8-Difluoro-3-(trifluoromethyl)-10,11,12,13-tetrahydro-19H-5,18-methanodibenzo[c,f]pyrido[3,2-i][1,5,9]triazacyclotridecine-15,19(14H)-dione] it was 8.6; in that of `O=C1c2cc(F)c(C(F)(F)F)cc2N2CN1c1ccc(=O)[nH]c1CNCCc1cc(F)ccc12` [Example 102, 2,8-Difluoro-3-(trifluoromethyl)-10,11,12,13-tetrahydro-19H-5,18-methanodibenzo[b,l]pyrido[3,2-f][1,5,9]triazacyclotridecine-15,19(14H)-dione], 7.1.
On the same count and under the same terms, the same measure for `O=C1c2cc(F)c(Cl)cc2N2CN1c1ccc(=O)[nH]c1NCCCc1c2ccc(F)c1F` [Example 94, 3-Chloro-2,8,9-trifluoro-10,11,12,13-tetrahydro-19H-5,18-methanodibenzo[f,i]pyrido[2,3-b][1,4,8]triazacyclotridecine-15,19(14H)-dione]: 8.1.
Take `CC[C@@H]1NCCc2[nH]c(=O)ccc2N2CN(c3cc(C(F)(F)F)c(F)cc3C2=O)c2ccc(F)cc21` [Example 128, (10S)-10-ethyl-2,8-difluoro-3-(trifluoromethyl)-10,11,12,13-tetrahydro-19H-5,18-methanodibenzo[c,f]pyrido[3,2-j][1,5,9]triazacyclotridecine-15,19(14H)-dione]: the IC50 is 631 nM.
Consider `O=C1c2c(ccc(C(F)(F)F)c2F)N2CN1c1ccc(=O)[nH]c1NCCCc1cc(F)ccc12` [Example 33, 1,8-Difluoro-2-(trifluoromethyl)-10,11,12,13-tetrahydro-19H-5,18-methanodibenzo[f,i]pyrido[2,3,-b][1,4,8]triazacyclotridecine-15,19(14H)-dione], for which the “Nav1.8, pIC50” value came to 7.5.
